# Measurements from patent publication US20260207585A1, “METHODS AND COMPOSITIONS FOR THE TREATMENT OF PARKINSON'S DISEASE, HUNTINGTON'S DISEASE, AMYOTROPHIC LATERAL SCLEROSIS, AND LEARNING DISORDERS” (Cedars-Sinai Medical Center, priority 2022, published 2026).
# Where two headings read alike, the source gives them in different places.
# Legend:
# [1] = biological target: T1, NSD2 (T1150A) (Homo sapiens, UniProt O96028, T1150A); assay: Methyltransferase inhibition panel: NSD2 (T1150A); assay type: biochemical
# T1 sequence (O96028 1-1365 T1150A): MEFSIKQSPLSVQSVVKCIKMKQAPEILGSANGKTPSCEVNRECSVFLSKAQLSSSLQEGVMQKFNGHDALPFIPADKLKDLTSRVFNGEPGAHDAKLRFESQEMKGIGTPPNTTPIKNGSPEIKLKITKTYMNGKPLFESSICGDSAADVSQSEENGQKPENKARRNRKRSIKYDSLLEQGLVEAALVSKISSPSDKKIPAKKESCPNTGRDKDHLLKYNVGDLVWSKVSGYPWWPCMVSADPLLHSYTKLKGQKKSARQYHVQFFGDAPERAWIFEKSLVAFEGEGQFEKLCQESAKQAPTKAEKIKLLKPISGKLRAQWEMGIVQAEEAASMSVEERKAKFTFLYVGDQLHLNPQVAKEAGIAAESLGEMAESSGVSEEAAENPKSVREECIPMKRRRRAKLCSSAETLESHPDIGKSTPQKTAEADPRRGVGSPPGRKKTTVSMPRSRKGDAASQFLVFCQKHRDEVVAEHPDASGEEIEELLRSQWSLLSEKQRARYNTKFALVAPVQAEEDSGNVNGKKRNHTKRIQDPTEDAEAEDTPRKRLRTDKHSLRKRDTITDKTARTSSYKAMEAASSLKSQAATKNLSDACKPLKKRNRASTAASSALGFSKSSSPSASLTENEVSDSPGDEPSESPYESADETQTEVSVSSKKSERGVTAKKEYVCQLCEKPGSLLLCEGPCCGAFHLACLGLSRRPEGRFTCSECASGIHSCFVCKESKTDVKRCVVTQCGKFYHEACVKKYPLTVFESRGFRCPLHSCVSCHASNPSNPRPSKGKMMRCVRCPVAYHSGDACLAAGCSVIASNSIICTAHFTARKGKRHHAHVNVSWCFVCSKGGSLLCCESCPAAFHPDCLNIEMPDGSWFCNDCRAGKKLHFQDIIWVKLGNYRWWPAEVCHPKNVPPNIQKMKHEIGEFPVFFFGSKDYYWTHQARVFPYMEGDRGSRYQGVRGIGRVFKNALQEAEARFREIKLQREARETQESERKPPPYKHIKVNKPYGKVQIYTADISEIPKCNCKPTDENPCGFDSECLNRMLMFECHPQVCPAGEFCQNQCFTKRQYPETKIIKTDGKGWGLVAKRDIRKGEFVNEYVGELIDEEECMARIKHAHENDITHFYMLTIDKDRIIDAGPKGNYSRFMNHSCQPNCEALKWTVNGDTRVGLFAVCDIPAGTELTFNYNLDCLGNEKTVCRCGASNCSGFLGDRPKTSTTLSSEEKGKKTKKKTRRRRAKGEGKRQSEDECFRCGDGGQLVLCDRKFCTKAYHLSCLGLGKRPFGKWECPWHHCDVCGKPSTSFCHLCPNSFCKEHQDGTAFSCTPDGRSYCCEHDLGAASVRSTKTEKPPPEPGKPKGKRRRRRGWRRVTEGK
# Procedure: (§1) The ability of ETP69 to inhibit methyltransferases was tested.
# [2] = biological target: T2, GLP (Homo sapiens, UniProt Q9H9B1); assay: Methyltransferase inhibition panel: GLP; assay type: biochemical
# T2 sequence (Q9H9B1 1-1298): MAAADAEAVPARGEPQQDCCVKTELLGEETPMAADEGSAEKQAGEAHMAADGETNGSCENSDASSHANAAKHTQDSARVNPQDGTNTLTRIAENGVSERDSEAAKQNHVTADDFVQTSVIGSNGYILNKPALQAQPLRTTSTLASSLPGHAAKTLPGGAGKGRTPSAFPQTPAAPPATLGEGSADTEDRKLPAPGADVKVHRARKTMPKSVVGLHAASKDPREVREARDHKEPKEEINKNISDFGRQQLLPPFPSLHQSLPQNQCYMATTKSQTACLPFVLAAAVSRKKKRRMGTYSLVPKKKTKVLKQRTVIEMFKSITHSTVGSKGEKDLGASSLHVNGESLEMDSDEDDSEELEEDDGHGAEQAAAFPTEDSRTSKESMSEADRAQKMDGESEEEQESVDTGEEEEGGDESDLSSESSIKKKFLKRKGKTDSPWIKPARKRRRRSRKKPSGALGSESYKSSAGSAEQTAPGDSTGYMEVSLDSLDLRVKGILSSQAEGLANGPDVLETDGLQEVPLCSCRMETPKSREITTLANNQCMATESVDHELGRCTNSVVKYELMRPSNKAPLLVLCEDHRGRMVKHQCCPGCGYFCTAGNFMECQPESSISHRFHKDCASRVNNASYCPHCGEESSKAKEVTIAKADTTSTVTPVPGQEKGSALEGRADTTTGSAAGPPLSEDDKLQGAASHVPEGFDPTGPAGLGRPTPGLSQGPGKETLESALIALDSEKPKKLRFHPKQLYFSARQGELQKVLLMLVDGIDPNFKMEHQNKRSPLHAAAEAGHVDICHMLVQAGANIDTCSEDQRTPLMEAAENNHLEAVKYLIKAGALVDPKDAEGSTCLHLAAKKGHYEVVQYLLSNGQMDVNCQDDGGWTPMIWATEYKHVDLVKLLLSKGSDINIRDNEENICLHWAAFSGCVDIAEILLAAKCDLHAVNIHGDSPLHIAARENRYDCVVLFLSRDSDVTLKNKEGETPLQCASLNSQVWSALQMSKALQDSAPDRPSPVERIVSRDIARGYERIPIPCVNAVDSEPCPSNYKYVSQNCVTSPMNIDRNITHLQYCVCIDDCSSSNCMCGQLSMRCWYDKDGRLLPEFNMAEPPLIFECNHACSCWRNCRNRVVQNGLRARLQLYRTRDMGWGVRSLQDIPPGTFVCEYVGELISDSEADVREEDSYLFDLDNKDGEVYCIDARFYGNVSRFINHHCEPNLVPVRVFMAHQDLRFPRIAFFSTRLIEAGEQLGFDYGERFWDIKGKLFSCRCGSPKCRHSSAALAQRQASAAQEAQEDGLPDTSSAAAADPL
# Procedure: as §1
# [3] = read-out: Enzyme % Activity (relative to DMSO controls) Data 1
# [4] = read-out: Enzyme % Activity (relative to DMSO controls) Data 2
smiles,measurement,setting,value
"CN1C(=O)[C@@]23C[C@](C)(C#N)[C@H](c4ccc5c(c4)OCO5)N2C(=O)[C@]1(C)SS3 (racemic) [ETP69, Rac-(3S,6S,7S,8aS)-6-(benzo[d][1,3]dioxol-5-yl)-2,3,7-trimethyl-1,4-dioxohexahydro-6H-3,8a-epidithiopyrrolo[1,2-a]pyrazine-7-carbonitrile]",remaining activity at 20 µM,[1]; [3],23.9%
same,remaining activity at 20 µM,[1]; [4],25.5%
same,inhibition relative to DMSO controls,[1]; summary of Table 1,at least 7500
same,remaining activity at 2.5 µM,[2]; [3],91.4%
same,remaining activity at 2.5 µM,[2]; [4],94.2%
